Where two headings read alike, the source gives them in different places. Positions of bridges follow the written chain, without caps; N, C: chain ends. Residues, ends and D or L forms follow the SMILES beside them. No end group written: not given here.
Tests used:
[1] = system: Pseudomonas aeruginosa type 1; format: cell-based; conditions: pH 5.6; for Effective Dose Bactericidal pH 5.6 P. aeruginosa Molar Concentration: Table 5
Experimental: Bactericidal activity can be evaluated against a variety of bacteria such as Pseudomonas spp including aeruginosa and P. cepacia, E. coli B, and Staphylococcus aureus. The preferred organism is P. aeruginosa. Bactericidal activity is determined by identifying the effective dose for killing as the molar concentration of the peptide which results in at least a 60% killing of the bacteria, as determined by standard methods. Preferably, the peptide has an effective dose at a concentration of about 1×10^-4 M to about 1×10^-10 M, and more preferably 1×10^-7 M to 1×10^-9M . […] The effective dose for bactericidal activity of B/PI is seen at about […] . Bactericidal activity can also be determined by calculating a lethal dose 50 (LD50) using standard methods. The LD50 is that amount of peptide or protein that kills 50% of the bacteria when measured using standard dose response methods. A bactericidal peptide preferably has an LD50 of about 10^-4 M to about 10^-9 M , more preferably about 10^-7 to 10^-9 M .
The synthetically produced peptides were assayed for bactericidal activity against Pseudomonas aeruginosa, type 1, P. cepacia ATCC 25608, E. coli B, and Staphylococcus aureus 502A by standard methods.
Pseudomonas aeruginosa type 1 is a clinical isolate maintained in the laboratory since 1972. The isolate remains a smooth strain and was serotyped by the scheme of Homma. Homma, Jpn. J. Exp. Med., 46:329 (1976). A rough strain E. coli B and S. aureus 502A were obtained from Paul Quie, University of Minnesota. The characteristics of the S. aureus strain have been described in Shinefield et al., Amer. J. Dis. Chil., 105:646 (1963). Pseudomonas cepacia ATCC 25608 was purchased from the American Type Culture Collection in 1980. S. aureus and E. coli were maintained on nutrient agar plates and the Pseudomonas strains were maintained on blood agar plates.
Pyrogen-free solutions were used throughout this assay and all methods which follow. Log phase bacteria were prepared from a culture in brain heart infusion broth as previously described except that bacteria were washed and resuspended in saline with adjustment to an optical density at 650 nm which would yield 3×10^8 CFU/ml. Bacteria were then diluted 1:10 in 0.08M citrate phosphate buffer, pH 5.6 or pH 7.0, for use in the assay. S. aureus rapidly lost viability in the pH 5.6 buffer and was studied only at pH 7.0. Bactericidal activity was determined by dose response and where an LD50 is indicated, it was determined by linear regression.

E. coli 055: B5 LPS = assay: Limulus amoebocyte lysate assay, neutralization of endotoxin; format: biochemical; conditions: for Effective Dose Endotoxin Neutralization (Molar Concentration): Table 8, LAL
Text: The peptide selected can also have endotoxin neutralizing activity. […] Endotoxin neutralizing activity can also be measured by calculating an inhibitory dose 50 […] using standard does response methods. An inhibitory dose 50 is that amount of peptide that can inhibit 50% of the activity of endotoxin. Endotoxin activity can also be measured by determining the amount of release of tumor necrosis factor alpha (TNFα) from a macrophage cell line or by evaluating the symptoms of shock in animals. Peptides preferably neutralized endotoxin at a molar concentration of about 1×10^-4 M to about 10^-8 M , more preferably about 10^-5 M to about 10^-6 M .
The ability of synthetic peptides to neutralize endotoxin was detected with the E-TOXATE kit manufactured by Sigma Chemicals, St. Louis, Mo. […] Peptide was incubated with LPS at room temperature for 10 minutes in 100 μl of a 1:2 dilution of pyrogen-free saline, pH 6.4. The reaction was started by addition of 100 μl of amoebocyte lysate and the final volume was 200 μl.
^a The dose of peptide required to inhibit clotting of LAL by 100%.
Each tube contained 0.04 endotoxin units of E. coli LPS.

Molecule	Effective Dose Bactericidal pH 5.6 P. aeruginosa Molar Concentration [1]	Effective Dose Endotoxin Neutralization (Molar Concentration) (E. coli 055: B5 LPS)	other results
ktkckflkkc [Peptide 25, reference compound]	6.0 × 10^-6 M	-- (not active at concentrations of 4.5 × 10^-4 M or less)	% Killing of 5 × 10^6 Bacteria ([1]; P. aeruginosa, 6.0 × 10^-6 M): 56%
kkkafrlakq [Peptide 28]	3.0 × 10^-5 M	-- (not active at concentrations of 4.5 × 10^-4 M or less)	% Killing of 5 × 10^6 Bacteria ([1]; P. aeruginosa, 3.0 × 10^-5 M): 68%; bacterial killing activity compared with parent peptide (in words) ([1]; P. aeruginosa): little or no effect
CC(C)C[C@@H]1NC(=O)[C@H](Cc2ccccc2)NC(=O)[C@H](CCCCN)NC(=O)[C@@H](NC(=O)[C@H](CCCCN)NC(=O)[C@@H](NC(=O)[C@@H](N)CCCCN)[C@@H](C)O)CSSC[C@@H](C(=O)O)NC(=O)[C@H](CCCCN)NC(=O)[C@H](CCCCN)NC1=O [cyclic 25, reference compound] (H-KTKCKFLKKC-OH; disulfide 4-10)	–	–	% Killing of 5 × 10^6 Bacteria ([1]; type 1, 1.5e-5 M): 73%
CSCC[C@H](NC(=O)[C@H](CCCCN)NC(=O)[C@H](CC(C)C)NC(=O)[C@H](Cc1ccccc1)NC(=O)[C@H](CCCNC(=N)N)NC(=O)[C@H](CCCCN)NC(=O)[C@H](CCC(N)=O)NC(=O)[C@H](C)NC(=O)[C@H](CCCCN)NC(=O)[C@H](Cc1c[nH]c2ccccc12)NC(=O)[C@H](CCCCN)NC(=O)[C@@H](N)CS)C(=O)N[C@@H](CO)C(=O)NCC(=O)O [Peptide 9b, ckwkaqkrflkmsg]	–	–	% Killing of 5 × 10^6 Bacteria ([1]; type 1, 1.5e-6 M): 96%
flkmsgnfdl [Peptide 34]	-- (not active at concentrations of 1.2 × 10^-4 M or less)	750 µM	–
ckwkaqkrflkc (CKWKAQKRFLKC; not fully specified (bridges); also: cyclic, kind and places of ring not given here) [Peptide 20a]	3.0 × 10^-6 M	-- (not active at concentrations of 4.5 × 10^-4 M or less)	% Killing of 5 × 10^6 Bacteria ([1]; P. aeruginosa, 3.0 × 10^-6 M): 76%
kisgkwkaqkrflkmsgnf [Peptide 35]	1.5 × 10^-7 M	450 µM	% Killing of 5 × 10^6 Bacteria ([1]; P. aeruginosa, 1.5 × 10^-7 M): 58%; neutralization of endotoxin in the LAL (in words) (E. coli 055: B5 LPS; highest concentration tested 4.5×10^-4 M): did not neutralize endotoxin
msgnfdlsie [Peptide 29]	-- (not active at concentrations of 1.2 × 10^-4 M or less)	220 µM	–
qkrflkmsgn [Peptide 33]	-- (not active at concentrations of 1.2 × 10^-4 M or less)	450 µM	–
nanikisgkwkaqkrflkmsgnfdlsi [Peptide 22]	6.0 × 10^-8 M	30 µM	% Killing of 5 × 10^6 Bacteria ([1]; P. aeruginosa, 6.0 × 10^-8 M): 74%
CC[C@H](C)[C@H](NC(=O)[C@H](CCCCN)NC(=O)[C@@H](N)CS)C(=O)N[C@@H](CO)C(=O)NCC(=O)N[C@@H](CCCCN)C(=O)N[C@@H](Cc1c[nH]c2ccccc12)C(=O)N[C@@H](CCCCN)C(=O)N[C@@H](C)C(=O)N[C@@H](CCC(N)=O)C(=O)N[C@@H](CCCCN)C(=O)N[C@@H](CCCNC(=N)N)C(=O)N[C@@H](Cc1ccccc1)C(=O)N[C@@H](CC(C)C)C(=O)N[C@@H](CCCCN)C(=O)O [Peptide 8b, ckisgkwkaqkrflk]	–	–	% Killing of 5 × 10^6 Bacteria ([1]; type 1, 1.5e-6 M): 88%
kkkffrlakq [Peptide 27]	3.0 × 10^-5 M	-- (not active at concentrations of 4.5 × 10^-4 M or less)	% Killing of 5 × 10^6 Bacteria ([1]; P. aeruginosa, 3.0 × 10^-5 M): 49%; bacterial killing activity compared with parent peptide (in words) ([1]; P. aeruginosa): little or no effect
kisgkwkaqk [Peptide 32]	1.25 × 10^-4 M	450 µM	% Killing of 5 × 10^6 Bacteria ([1]; P. aeruginosa, 1.25 × 10^-4 M): 33%
anikisgkwk [Peptide 31]	3.0 × 10^-5 M	220 µM	% Killing of 5 × 10^6 Bacteria ([1]; P. aeruginosa, 3.0 × 10^-5 M): 53%
kwkfkqralk [Peptide 26]	1.5 × 10^-5 M	300 µM	% Killing of 5 × 10^6 Bacteria ([1]; P. aeruginosa, 1.5 × 10^-5 M): 61%
CC[C@H](C)[C@H](NC(=O)[C@@H](N)CCCCN)C(=O)N[C@@H](CO)C(=O)NCC(=O)N[C@@H](CCCCN)C(=O)N[C@@H](Cc1c[nH]c2ccccc12)C(=O)N[C@@H](CCCCN)C(=O)N[C@@H](C)C(=O)N[C@@H](CCC(N)=O)C(=O)N[C@@H](CCCCN)C(=O)N[C@@H](CCCNC(=N)N)C(=O)N[C@@H](Cc1ccccc1)C(=O)N[C@@H](CC(C)C)C(=O)N[C@@H](CCCCN)C(=O)O [Peptide 8a, kisgkwkaqkrflk]	–	–	% Killing of 5 × 10^6 Bacteria ([1]; type 1, 6.0e-6 M): 79%
CC[C@H](C)[C@@H]1NC(=O)[C@H](CCCCN)NC(=O)[C@@H](N)CSSC[C@@H](C(=O)O)NC(=O)[C@H](Cc2ccccc2)NC(=O)[C@H](CC(N)=O)NC(=O)CNC(=O)[C@H](CO)NC(=O)[C@H](CCSC)NC(=O)[C@H](CCCCN)NC(=O)[C@H](CC(C)C)NC(=O)[C@H](Cc2ccccc2)NC(=O)[C@H](CCCNC(=N)N)NC(=O)[C@H](CCCCN)NC(=O)[C@H](CCC(N)=O)NC(=O)[C@H](C)NC(=O)[C@H](CCCCN)NC(=O)[C@H](Cc2c[nH]c3ccccc23)NC(=O)[C@H](CCCCN)NC(=O)CNC(=O)[C@H](CO)NC1=O [cyclic 36] (H-CKISGKWKAQKRFLKMSGNFC-OH; disulfide 1-21)	–	–	% Killing of 5 × 10^6 Bacteria ([1]; type 1, 1.5e-7 M): 76%
CC(C)C[C@@H]1NC(=O)[C@H](Cc2ccccc2)NC(=O)[C@H](CCCNC(=N)N)NC(=O)[C@H](CCCCN)NC(=O)[C@H](CCC(N)=O)NC(=O)[C@H](C)NC(=O)[C@H](CCCCN)NC(=O)[C@H](Cc2c[nH]c3ccccc23)NC(=O)[C@H](CCCCN)NC(=O)[C@@H](N)CSSC[C@@H](C(=O)O)NC(=O)[C@H](CCCCN)NC1=O [cyclic 20a]	–	–	% Killing of 5 × 10^6 Bacteria ([1]; type 1, 3.0e-5 M): 89%
CC[C@H](C)[C@H](NC(=O)[C@H](CCCCN)NC(=O)[C@@H](N)CSSC[C@H](N)C(=O)N[C@@H](CCCCN)C(=O)N[C@H](C(=O)N[C@@H](CO)C(=O)NCC(=O)N[C@@H](CCCCN)C(=O)N[C@@H](Cc1c[nH]c2ccccc12)C(=O)N[C@@H](CCCCN)C(=O)N[C@@H](C)C(=O)N[C@@H](CCC(N)=O)C(=O)N[C@@H](CCCCN)C(=O)N[C@@H](CCCNC(=N)N)C(=O)N[C@@H](Cc1ccccc1)C(=O)N[C@@H](CC(C)C)C(=O)N[C@@H](CCCCN)C(=O)O)[C@@H](C)CC)C(=O)N[C@@H](CO)C(=O)NCC(=O)N[C@@H](CCCCN)C(=O)N[C@@H](Cc1c[nH]c2ccccc12)C(=O)N[C@@H](CCCCN)C(=O)N[C@@H](C)C(=O)N[C@@H](CCC(N)=O)C(=O)N[C@@H](CCCCN)C(=O)N[C@@H](CCCNC(=N)N)C(=O)N[C@@H](Cc1ccccc1)C(=O)N[C@@H](CC(C)C)C(=O)N[C@@H](CCCCN)C(=O)O [dimer 8b]	–	–	% Killing of 5 × 10^6 Bacteria ([1]; type 1, 1.5e-6 M): 52%
CSCC[C@H](NC(=O)[C@H](CCCCN)NC(=O)[C@H](CC(C)C)NC(=O)[C@H](Cc1ccccc1)NC(=O)[C@H](CCCNC(=N)N)NC(=O)[C@H](CCCCN)NC(=O)[C@H](CCC(N)=O)NC(=O)[C@H](C)NC(=O)[C@H](CCCCN)NC(=O)[C@H](Cc1c[nH]c2ccccc12)NC(=O)[C@@H](N)CCCCN)C(=O)N[C@@H](CO)C(=O)NCC(=O)O [Peptide 9a, kwkaqkrflkmsg]	–	–	% Killing of 5 × 10^6 Bacteria ([1]; type 1, 6.0e-6 M): 67%

Reference: patent publication US5786324A, “Synthetic peptides with bactericidal activity and endotoxin neutralizing activity for gram negative bacteria and methods for their use” (priority 1994, dated 1998)
